Source: patent publication EP4631928A1, “METHOD OF PURIFICATION OF GLYCOLIC ACID, COMPOSITION AND USE THEREOF” (Metabolic Explorer, priority 2024, dated 2025)

Tests used:
SKINETHIC™ RHE model = test: Tissue viability, MTT assay on 3D reconstructed human epidermis after topical application; type: cell-based; details: for Tissue viability / EC50: 24 hours; for Tissue viability: relative to untreated epidermis; for EC50 value / EC50: concentration reducing viability to 50% of control tissues; for EC50: probit-log regression
Procedure: (§1) The assay takes place in two steps: • Step 1: EC50 concentration finding assay is performed with one representative sample. • Step 2: determination of EC50 concentration values and IL-1α levels performed with both GA.
(§2) Prior to GA application, tissue inserts are transferred in 12-well plates prefilled with fresh maintenance medium. 60 µl/cm^2 of each GA solution is applied on top of epidermidis. After application, tissues are incubated for 24 hours at 37°C (±1 °C) and 5% ([…]) CO2.
(§3) The tissue viability is measured with the MTT assay performed in 24 hours. The MTT assay is based on the reduction of 3-(4,5-Dimethylthiazol-2-yl)-2,5-Diphenyltetrazolium Bromide (MTT) into insoluble purple formazan crystals, by metabolically active cells in a mitochondria-dependant reaction catalysed by succinate dehydrogenase. The ability of cells to reduce MTT after exposure to GA, compared to the control (untreated epidermis), enables to deduce the relative toxicity of the applied GA. The optical density (OD) of formazan solution is proportional to the number of viable cells.
(§4) After incubation, tissues are rinsed with PBS and then transferred into 24-well plates pre-filled with MTT solution. After 120 minutes (±10 minutes) of incubation at 37°C (±1 °C), the tissues are transferred into 24-well plates containing DMSO for extraction of formazan. Then the plates are stored overnight at room temperature. At the end of the extraction period, 3 x 200 µl aliquots of formazan extracts are transferred into a 96-well flat bottom microtiter plate and the optical density is read at 570 nm in a microplate reader.
(§5) The optical densities of each replicate are corrected by substracting the mean OD value of blank measured in parallel. The mean from corrected OD values (ODcorr) as well as standard deviation are calculated in each experimental group.
(§6) From the mean ODcorr values, the relative tissue viability (% viab) is calculated as a percentage of the mean viability of the control (untreated epidermis): % viab (treated) = ((treated) ODcorr mean)/((Control ODcorr mean) × 100. [formula]
(§7) The graph represents the dose response curve of cells viability (% viab) versus the GA concentration (C). The EC50 value is calculated from the dose response curve, by using the probit-log regression model.

interleukin 1α (IL-1α) = test: Inflammatory response, IL-1α release assay (ELISA) on reconstructed human epidermis; type: cell-based; details: IL-1α level normalized to tissue viability, 24 hours
Description: The 3D reconstructed human epidermis (RhE) used as test system in the study, is the SKINETHIC™ RHE model commercially available from the company EPISKIN SA. The SKINETHIC™ RHE model is obtained by tissue engineering from untransformed human keratinocytes previously obtained from human epidermis. The model is described in the OECD 439 guideline for in vitro skin irritation of chemical products.
The assay is based on topical application of the tested GA at different concentrations on reconstructed human epidermis (RHE SkinEthic™), followed by evaluation of: • Tissue viability, by MTT colorimetric test to determine the concentration of test product needed to produce the viability to 50% of control tissues (EC50). • SkinEthic™ RHE tissue inflammatory response, by interleukin 1α (IL-1α) release assay.
as §2
At the end of the assay after 24 hours incubation period, the conditioned media underneath tissues are collected, aliquoted and stored at -20°C until IL-1α assay.
IL-1α is quantified using an Elisa kit (Quantikine Human IL-1α DLA50) according to the manufacturer's instructions. The optical densities are read at 450 nm.
IL-1α levels (pg/ml) are interpolated from the standard curve built with IL-1α standard provided with the Elisa kit. The mean of IL-1α release concentrations is calculated in each experimental group. For the comparative analysis, the IL-1α levels were normalized in function of tissue viability (MMT test). The values R (IL-1α/Viab%) ×100) have been calculated at different concentrations with the two GA and collected in the following Table 18: Table 18: IL-1α ratios.

[1] = Tissue viability, MTT assay on 3D reconstructed human epidermis after topical application; type: cell-based; details: human, 24 hours, relative to untreated epidermis
Procedure: as §1, §2, §3, §4, §5, §6, §7

skin = test: Usage test, panel questionnaire on skin quality; type: in vivo, human; details: between the 7th and the 14th day
Description: A panel of 60 women with mature skin ranging from normal to dry, were selected to apply to each half of the face, the two tested items: GA-METEX and GA-CONTROL. The panelists were asked about their feeling after 7 and 14 days of daily application. The questionnaire covered items: nourished skin, uniform skin, smooth skin, luminous skin, finer skin texture, firm skin.

Compound	Tissue viability (SKINETHIC™ RHE model; GA concentration 1.27%)	Tissue viability (SKINETHIC™ RHE model; GA concentration 1.69%)	Tissue viability (SKINETHIC™ RHE model; GA concentration 2.25%)	Tissue viability (SKINETHIC™ RHE model; GA concentration 3%)	EC50 value (SKINETHIC™ RHE model)	EC50 (SKINETHIC™ RHE model)	R (IL-1α/Viab%) ×100 (interleukin 1α (IL-1α); GA concentration 1.27%)	R (IL-1α/Viab%) ×100 (interleukin 1α (IL-1α); GA concentration 1.69%)	R (IL-1α/Viab%) ×100 (interleukin 1α (IL-1α); GA concentration 2.25%)	viability at 24 h, 1.27 % ([1]; GA concentration 1.27%)	viability at 24 h, 3 % ([1]; GA concentration 3%)	user satisfaction, evolution (skin)
O=C(O)CO [GA-CONTROL, Glycolic acid]	62.1%	31.2%	10.5%	3.4%	1.42%	1.42 % p/v	15.09	35.33	75.07			
O=C(O)CO [GA-METEX, Glycolic acid]		59,6%	22.2%		1.70%	1.70 % p/v	10.42	18.26	35.56	74.9%	3.5%	significant increase in user satisfaction
